The values that follow come from PubChem BioAssay (NCI).

What is called GI50 is the concentration that inhibits growth by half. By TGI is commonly meant the concentration at which net growth stops.

SMILES strings stand for the structures.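 Step 1: Grow cells in 96-well plates. Step 2: Expose to compound for 48 hours at 5 concentrations. Step 3: Interpolate endpoints linearly; if unreached, use highest concentration. Abbreviation: GI50, concentration required for 50% inhibition of growth. The concentration for full growth arrest is given as TGI.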 A value given as a limit tells only on which side of the number the result lay.

Holding throughout (test): DTP human tumour cell line panel, 48 h
Assay [1] relates to NCI-H226 lung.
The subject of assay [2] is SW-620 colon.
For assay [3], the system named is A549 NSCLC.
For assay [4], the system named is T-47D breast.
For assay [5], the system named is SK-MEL-2 melanoma.
For assay [6], the system named is UO-31 renal.
Assay [7] relates to K-562 leukemia.
The subject of assay [8] is MCF7 breast.

In the case of `O=C1C(Nc2cccc(O)c2)=C(Sc2ccccc2)C(=O)N1Cc1ccccc1`, the GI50 in assay [1] was 2.55 µM; in assay [2] it was 14.2 µM; in assay [3] it was 3.81 µM; in assay [4], 1.84 µM; in assay [5] it was 11.4 µM; in assay [6], 4.98 µM. Further, the GI50 in assay [7] is 3.71 µM; in assay [8] it was 6.87 µM. Besides, the total growth inhibition concentration (TGI) in assay [1] was determined as 22 µM; in assay [2], 33.4 µM; in assay [3] it was 15.9 µM; in assay [4] it was 19.9 µM; in assay [5], 26.7 µM; in assay [6], 18 µM. Moreover, the TGI in assay [7] was 17.1 µM; in assay [8] it was 22.8 µM.
On to `COc1cc(C(=O)/C=C/c2c(C(F)(F)F)nc3ccccn23)cc(OC)c1OC`, for which the GI50 is 3.55 µM in assay [1]; 1.68 µM in assay [2]; 4.04 µM in assay [3]; 3.52 µM in assay [4]; 2.43 µM in assay [5]; 1.49 µM in assay [6]. The figures for the GI50 in assay [7] and in assay [8] were 2.83 µM and 1.44 µM, respectively. Moreover, the TGI in assay [1] is 21.7 µM; in assay [2], 4.24 µM; in assay [3], above 100 µM; in assay [4], 15 µM; in assay [5], 6.07 µM; in assay [6] it was 3.11 µM. For the same compound, the TGI was above 100 µM in assay [7] and 6.41 µM in assay [8].
As to `O=C1/C(=C/c2ccccc2[N+](=O)[O-])COc2ccc(O)cc21`, the GI50 is 2.4 µM in assay [1]; 0.448 µM in assay [2]; 4.49 µM in assay [3]; 2.36 µM in assay [4]; 2.98 µM in assay [5]; 1.02 µM in assay [6]. For the same compound, the values for the GI50 in assay [7] and in assay [8] were 0.528 µM and 0.697 µM, respectively. Moreover, the TGI in assay [1] was 10.9 µM; in assay [2], 1.81 µM; in assay [3], 19.4 µM; in assay [4] it was 17.6 µM; in assay [5], 11 µM; in assay [6], 2.63 µM. Also, the TGI in assay [7] is above 100 µM; in assay [8], 8.75 µM.
With `COc1cc2c(cc1NC(=O)C(Cl)Cl)-c1ccc(NC(=O)C(Cl)Cl)cc1C2`, the GI50 in assay [1] was 6.04 µM; in assay [2] it was 0.264 µM; in assay [3] it was 0.741 µM; in assay [4], 0.707 µM; in assay [5] it was 0.708 µM; in assay [6] it was 0.73 µM. The GI50 is 0.438 µM in assay [7] and 0.391 µM in assay [8]. Moreover, the TGI stood at 17.1 µM in assay [1]; 0.935 µM in assay [2]; 2.73 µM in assay [3]; 8.6 µM in assay [4]; 2.07 µM in assay [5]; 2.75 µM in assay [6]. The TGI in assay [7] was found to be 3.64 µM; in assay [8], 1.82 µM.
On to `C=CCN(CC=C)C(=O)[C@H](CC)[C@@H]1CC[C@@H](C)[C@@H]([C@H](C)[C@@H](O)[C@@H](C)C(=O)[C@H](CC)C2O[C@]3(C=C[C@@H](O)[C@]4(CC[C@@](C)([C@H]5CC[C@](O)(CC)[C@H](C)O5)O4)O3)[C@H](C)C[C@@H]2C)O1` (some centres undefined), for which the GI50 is 1.86 µM in assay [1]; 2.97 µM in assay [2]; 3.37 µM in assay [3]; 2.37 µM in assay [4]; 2.62 µM in assay [5]; 2.16 µM in assay [6]. The GI50 in assay [7] was 2.64 µM; in assay [8] it was 1.95 µM. The concentration for total growth inhibition (TGI) in assay [1] is 4.92 µM; in assay [2] it was 10.6 µM; in assay [3], above 100 µM; in assay [4] it was 13.5 µM; in assay [5] it was 7.47 µM; in assay [6], 7.46 µM. Besides, the values for the TGI in assay [7] and in assay [8] were 11 µM and 5.14 µM, respectively.
As for `N#C/C(=C\c1cc2ccc(N3CCC3)cc2oc1=O)C(=O)N(CC(=O)O)CC(=O)O`, the GI50 in assay [1], in assay [2], in assay [3], in assay [4], in assay [5] and in assay [6] was above 100 µM throughout. Besides, the GI50 in assay [7] is 97.2 µM; in assay [8] it was above 100 µM. The TGI in assay [1], in assay [2], in assay [3], in assay [4], in assay [5] and in assay [6] was above 100 µM throughout. The TGI in assay [7] and in assay [8] was above 100 µM throughout.
Consider `Cn1c(C(=O)c2cccc3ccccc23)nc2ccccc21`, for which the GI50 was above 100 µM in assay [1]; above 100 µM in assay [2]; above 100 µM in assay [3]; 22 µM in assay [4]; above 100 µM in assay [5]; 46.1 µM in assay [6]. Also, the GI50 in assay [7] is above 100 µM; in assay [8] it was 3.81 µM. The total growth inhibition concentration (TGI) in assay [1], in assay [2], in assay [3], in assay [4], in assay [5] and in assay [6] was above 100 µM throughout. In addition, the TGI in assay [7] and in assay [8] was above 100 µM in each case.
As for `O=C1/C(=C/c2ccccc2O)N=C(c2ccccc2)N1c1cc(C(F)(F)F)ccc1Cl`, the GI50 in assay [1] is 33 µM; in assay [2], above 100 µM; in assay [3] it was 75.7 µM; in assay [4], 6.68 µM; in assay [5] it was above 100 µM; in assay [6] it was 94.2 µM. For the same compound, the GI50 was above 100 µM in assay [7] and 3.04 µM in assay [8]. Besides, the total growth inhibition concentration (TGI) in assay [1], in assay [2], in assay [3], in assay [4], in assay [5] and in assay [6] was above 100 µM each time. Further, the TGI in assay [7] and in assay [8] was above 100 µM throughout.
On to `C=CC(=O)N[C@@H](/C=C/C(=O)OCC)Cc1ccc(-c2cc(Cl)cc(Cl)c2)cc1`, for which the GI50 is 16.7 µM in assay [1]; 17 µM in assay [2]; 17.7 µM in assay [3]; 3.35 µM in assay [4]; 16.3 µM in assay [5]; 4.42 µM in assay [6]. In addition, the GI50 in assay [7] was 15.7 µM; in assay [8] it was 5.92 µM. The TGI in assay [1] was 71.7 µM; in assay [2], 83.2 µM; in assay [3], above 100 µM; in assay [4], 28 µM; in assay [5] it was 38.3 µM; in assay [6] it was 96.2 µM. For the same compound, the TGI in assay [7] is above 100 µM; in assay [8], 66.4 µM.
